{"source": "patent US9045415B2", "about": "“Targeting of EWS-FLI1 as anti-tumor therapy” (Georgetown University, priority 2006, dated 2015)", "key": {"A673 cells": {"system": "A673 cells", "test": "YK-4-279 toxicity in shRNA-modified ESFT cells", "type": "cell-based", "settings": "for IC50: Homo sapiens", "experimental": "(§1) FIG. 39A provides data showing HEC and HFK, non-transformed endocervical cells and keritinocytes, treated with YK-4-279 for 72 hours and assayed for viability using WST reduction. FIG. 39B provides data showing TC71 cells treated for 16 hours with YK-4-279 or doxorubicin. Lysates were assayed for cleavage of AMC-DEVD by induced caspase-3 and fluorescence was measured. FIG. 39C provides data showing that RHA reduced TC71 cells were more resistant to YK-4-279 treatment than wild-type cells. FIG. 39D provides data showing an shRNA tet-inducible expression vector stably transfected into A673 (ESFT) cells to reduce EWS-FLI1 levels. FIG. 39E provides data showing that EWS-FLI1 reduced A673 cells were more resistant to YK-4-279 treatment than wild-type cells.\nshRNA (short hairpin RNA) against RHA was purchased from Open Biosystems (Huntsville, Ala.) Both virus production and purification were done according to Open Biosystems protocols. (For designing shRNA see McIntyre G. J. et al. “Design and cloning strategies for constructing shRNA expression vectors.” BMC Biotechnol. (2006) 6:1)\nIn order to further support for the target specificity of YK-4-279 toxicity upon ESFT cells, the levels of each of the critical proteins were reduced by using shRNA in A673 cells42. […] When EWS-FLI1 was reduced using shRNA, the IC50 increased 10-fold from 0.5 μM to approximately 5 μM (FIG. 39D, FIG. 39E)."}, "[1]": {"system": "non-transformed keratinocytes (HFK) and ectocervical cells (HEC)", "test": "Viability (WST), non-transformed HFK and HEC", "type": "cell-based", "settings": "Keratinocyte, 72 h; treated for 3 days", "experimental": "as §1"}, "TC32": {"system": "TC32", "test": "Nuclear fragmentation (DAPI), TC32", "type": "cell-based", "settings": "50 μM, 6 hours", "experimental": "(§2) Cells were treated for 24 hours with 10 μM YK-4-279. The Caspase-3 substrate DEVD-AMC was incubated with equal amounts of protein lysate and fluorescence from cleaved substrate measured in a fluorimeter. TC32 and non-transformed cells HEK-293, HFK, and HEC were treated for 6 hours with high dose (50 μM) YK-4-279. DAPI stained cells were photographed at 600× using inverted fluorescence microscope."}, "EWS-FLI1": {"system": "EWS-FLI1", "test": "Fluorescence polarization assay, FITC-E9R displacement", "type": "binding", "settings": "30 μM YK-4-279; 3.2 μM FITC-E9R", "protocol": "The assay was performed in 20 mM Tris, 500 mM NaCl, 0.67 M imidazole, pH 7.4. The fluorescence polarization was analyzed in a QuantaMaster fluorimeter (Photon Technology International, Ford, West Sussex, UK) equipped with polymer sheet polarizers at an excitation wavelength of 495 nm and emission wavelength of 517 nm. […] (3.2 μM, as determined from saturated binding curve) with the same buffer and instrumental settings as described above."}, "[2]": {"system": "ESFT xenografts (TC71 and CHP-100)", "test": "ESFT orthotopic xenografts treated with YK-4-279", "type": "in vivo, mice", "experimental": "Xenografts were established with injection of either ESFT (CHP-100 or TC71) or Prostate cancer (PC3) cells. […] Single experiment growth curves depicted are representative of five independent experiments. […] Tumor volumes at day 14 after treatment initiation compared across 5 experiments (DMSO n=19, YK-4-279 n=25, p<0.0001, by Mann-Whitney test).\nOne million TC71 or CHP-100 cells in 100 μL HBSS were injected orthotopically into the gastrocnemius muscle of 4-8 week old SCID/bg mice (Taconic, Germantown, N.Y.). Prostate cancer xenografts were established by subcutaneous injection of 5 million PC3 cells into the flanks of 4-8 week old nude mice (Taconic). Mice were randomized to receive three times per week intraperitoneal injections of DMSO, YK-4-279 at 1.5 mg/dose when tumors were palpable. Each of the animal experiments was begun with 10 mice that were randomized into treatment and control groups when the tumors reached palpable size. In the control groups some tumors exceeded the IACUC maximal size (2 cm in any dimension) and were euthanized prior to day 14 and thus not included in the day 14 analysis (FIG. 6c). Tumor length and width were measured every 2-4 days and volume was calculated using the formula […] where D is the longest diameter and d is the shorter diameter. Xenograft studies were approved by the Memorial Sloan-Kettering Cancer Center Institutional Animal Care and Use Committee."}, "[3]": {"system": "EWS-FLI1 responsive NROB1 promoter", "test": "Luciferase reporter assay of EWS-FLI1 responsive NROB1 promoter in COS7 cells", "type": "cell-based", "settings": "3 and 10 μM, 18 hours", "experimental": "FIG. 32 provides data showing YK-4-279 reduces EWS-FLI1 functional activity. FIG. 32A concerns TC32 cells that were treated with YK-4-279 and resolved protein lysates and that were immunoblotted for co-precipitated RHA (top), EWS-FLI1 (middle), or total RHA (bottom).\nEGFP-E9R fusion constructs prepared as published (Frangioni, J. V. & Neel, B. G. Use of a general purpose mammalian expression vector for studying intracellular protein targeting: identification of critical residues in the nuclear lamin A/C nuclear localization signal. J Cell Sci 105 (Pt 2), 481-488 (1993)). We transiently transfect the NR0B131 luciferase reporter and full-length EWS-FLI1 into COS-7 cells with Fugene-6 (Roche) and luciferase assay performed per manufacturer's protocol (Dual Luciferase Kit, Promega). Six hours following transfection, cells were treated with either 3 or 10 μM YK-4-279. Cell lysates luciferase activity levels were standardized to renilla activity from a non-affected promoter and plotted as relative luciferase activity (RLA)."}, "[4]": {"system": "ESFT cell lines (TC32, A4573, TC71, and ES925)", "test": "Caspase-3 activity (DEVD-AMC cleavage), ESFT cell lines", "type": "cell-based", "settings": "24 hours", "experimental": "as §2"}}}
{"smiles": "COc1ccc(C(=O)CC2(O)C(=O)Nc3c(Cl)ccc(Cl)c32)cc1", "note": "(stereo not shown) [YK-4-279, 4,7-Dichloro-3-hydroxy-3-[2-(4-methoxyphenyl)-2-oxoethyl]-1,3-dihydro-2H-indol-2-one]", "values": [{"measurement": "increase of IC50 when EWS-FLI1 was reduced", "setting": "A673 cells", "result": 10, "unit": "fold"}, {"measurement": "IC50", "setting": "A673 cells; A673, EWS-FLI1 reduced using shRNA", "result": "~5", "unit": "µM"}, {"measurement": "IC50", "setting": "A673 cells; A673, RHA reduced cells (shRNA)", "result": "> 10", "unit": "µM"}, {"measurement": "IC50", "setting": "A673 cells; A673, before EWS-FLI1 reduction", "result": 0.5, "unit": "µM"}, {"measurement": "IC50", "setting": "A673 cells; A673, control shRNA (targeting luciferase)", "result": "< 1", "unit": "µM"}, {"measurement": "IC50", "setting": "[1]", "result": "> 30", "unit": "µM"}, {"measurement": "apoptosis (nuclear fragmentation)", "setting": "TC32", "result": "significant apoptosis"}, {"measurement": "displacement of FITC-E9R from EWS-FLI1", "setting": "EWS-FLI1", "result": "complete displacement"}, {"measurement": "tumor growth", "setting": "[2]; 60-75 mg/kg", "result": "significantly reduced tumor growth"}, {"measurement": "tumor growth rate", "setting": "[2]; CHP-100, 1.5 mg/dose i.p. three times per week", "result": "reduced"}, {"measurement": "increase in caspase-3 activity in tumors compared to control animals", "setting": "[2]; CHP-100 xenograft tumors, immunohistochemistry", "result": 3, "unit": "fold"}, {"measurement": "overall response, tumor volumes at day 14, five experiments", "setting": "[2]; TC71 and CHP-100, 1.5 mg/dose", "result": "marked overall tumor reduction"}, {"measurement": "pathological analysis of treated animals", "setting": "[2]; mouse, in vivo", "result": "did not show any signs of toxicity except changes related to IP injection"}, {"measurement": "NROB1 promoter activity", "setting": "[3]", "result": "dose-dependent decrease in promoter activity"}, {"measurement": "caspase-3 activity", "setting": "[4]; TC32 cells, dose range", "result": "rose in a dose dependent fashion"}, {"measurement": "caspase-3 activation", "setting": "[4]; four ESFT cell lines, 10 μM", "result": "induced caspase-3 activity"}]}
